# Data taken from PMC6468809, “Structural Analysis of the 42 kDa Parvulin of Trypanosoma brucei” (Biomolecules, 2019).
# *1 amine or outer side, *2 acyl side, *3 side chain or, on linkers, in order; H or OH if unused. Where a SMILES comes first, the peptide text is derived from it. [ ]: non-standard residue; d: D form. pT = C[C@@H](OP(=O)(O)O)[C@H](N)C(=O)O; Suc = O=C(CCC(=O)[*:2])[*:1]
# Experiments:
# [1] = test system: hPin1; assay: EXSY experiment, cis/trans isomerisation of peptide; format: biochemical, human; settings: 2.4 mM peptide, 50 μM hPin-PPIase, 25 mM potassium phosphate pH 6.26, 100% D2O, 27 °C, mixing time 400 ms
# [2] = biological target: TbPar42 NterFHA (1-177) (Trypanosoma brucei brucei, UniProt Q57XM6); assay: biochemical
# TbPar42 NterFHA (1-177), sequence (Q57XM6 1-177): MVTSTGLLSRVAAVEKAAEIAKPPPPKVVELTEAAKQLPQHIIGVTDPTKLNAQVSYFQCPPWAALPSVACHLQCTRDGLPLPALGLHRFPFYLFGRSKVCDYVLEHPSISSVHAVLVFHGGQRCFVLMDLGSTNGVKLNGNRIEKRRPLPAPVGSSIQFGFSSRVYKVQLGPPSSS
# Protocol: After each step a ^1H-^15N-HSQC or SOFAST spectrum was recorded on a 700 MHz Ultrashield NMR spectrometer at 27 °C. The spectra were analyzed with the CcpNmr Analysis software, and the chemical shift perturbations were calculated with following equation [22]: Δδtotal=(ΔδH)^2+(0.154·ΔδN)²
# Residues with chemical shifts ≥0.015 ppm (PPIase) or ≥0.04 ppm (NterFHA) were represented on the related protein structure using PyMOL [23]. For titrations of the peptide Ala-Glu-Ala-pThr-Glu-Ala-Xaa (Xaa representing Asp, Ile, Val, Ser, or Gln) to the NterFHA domain, the protein concentration was 250 µM and the peptides were titrated to a final concentration of 8 mM.
# [3] = biological target: TbPar42-PPIase (264-383) (Trypanosoma brucei brucei, UniProt Q57XM6); assay: biochemical
# TbPar42-PPIase (264-383), sequence (Q57XM6 264-383): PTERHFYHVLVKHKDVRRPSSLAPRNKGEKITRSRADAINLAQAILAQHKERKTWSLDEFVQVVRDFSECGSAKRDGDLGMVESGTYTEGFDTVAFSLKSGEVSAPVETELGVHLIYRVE
# [4] = test system: TbPar42-PPIase; assay: EXSY experiment, cis/trans isomerisation of peptide; format: biochemical, Trypanosoma brucei; settings: 2.4 mM peptide, 50 μM TbPar42-PPIase, 25 mM potassium phosphate pH 6.26, 100% D2O, 27 °C, mixing time 400 ms
smiles,measurement,setting,value
C[C@H](NC(=O)[C@@H]1CCCN1C(=O)[C@@H](NC(=O)[C@H](C)NC(=O)CCC(=O)O)[C@@H](C)OP(=O)(O)O)C(N)=O [Suc-Ala-pThr-Pro-Ala-NH2] (Suc-A[pT]PA-NH2),cis/trans exchange peaks of the peptide (EXSY),[1],exchange peaks generated exclusively in B
same,Kd,[2],~4 mM
same,Kd,[3],~10 mM
same,isomerase activity on the peptide,[4],no isomerase activity could be detected
